How the values were obtained:
Assay in all cases: HotSpot kinase assay
Settings in all cases: read-out: % Enzyme Activity (relative to DMSO control), 10 uM
[1] = molecular target: CAMK2a (Homo sapiens, UniProt Q9UQM7)
[2] = molecular target: COT1/MAP3K8 (Homo sapiens, UniProt P41279)
Source text: (§1) Additionally, a 10-dose dilution series of staurosporine and other enzyme-appropriate compounds were included as positive control inhibitors.

[3] = molecular target: ULK1 (Homo sapiens, UniProt O75385)
Source text: as §1

[4] = molecular target: PKN2/PRK2 (Homo sapiens, UniProt Q16513)
Source text: as §1

[5] = molecular target: c-Kit (Homo sapiens, UniProt P10721)
Source text: as §1

[6] = molecular target: NEK2 (Homo sapiens, UniProt P51955)
NEK2, sequence (P51955 whole entry): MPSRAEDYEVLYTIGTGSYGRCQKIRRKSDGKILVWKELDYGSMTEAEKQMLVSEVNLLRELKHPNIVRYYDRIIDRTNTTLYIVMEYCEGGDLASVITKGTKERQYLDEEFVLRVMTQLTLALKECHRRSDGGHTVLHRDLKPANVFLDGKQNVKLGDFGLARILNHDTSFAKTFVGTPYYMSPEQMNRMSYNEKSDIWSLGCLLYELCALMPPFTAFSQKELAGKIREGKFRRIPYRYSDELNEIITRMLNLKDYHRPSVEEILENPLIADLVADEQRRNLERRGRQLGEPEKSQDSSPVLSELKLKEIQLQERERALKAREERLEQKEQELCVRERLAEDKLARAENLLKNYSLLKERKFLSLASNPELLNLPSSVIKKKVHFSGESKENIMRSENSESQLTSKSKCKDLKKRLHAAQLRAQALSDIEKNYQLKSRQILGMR
Source text: as §1

[7] = molecular target: FES/FPS (Homo sapiens, UniProt P07332)
[8] = molecular target: TXK (Homo sapiens, UniProt P42681)
Source text: as §1

[9] = molecular target: PHKg2 (Homo sapiens, UniProt P15735)
PHKg2, sequence (P15735 whole entry): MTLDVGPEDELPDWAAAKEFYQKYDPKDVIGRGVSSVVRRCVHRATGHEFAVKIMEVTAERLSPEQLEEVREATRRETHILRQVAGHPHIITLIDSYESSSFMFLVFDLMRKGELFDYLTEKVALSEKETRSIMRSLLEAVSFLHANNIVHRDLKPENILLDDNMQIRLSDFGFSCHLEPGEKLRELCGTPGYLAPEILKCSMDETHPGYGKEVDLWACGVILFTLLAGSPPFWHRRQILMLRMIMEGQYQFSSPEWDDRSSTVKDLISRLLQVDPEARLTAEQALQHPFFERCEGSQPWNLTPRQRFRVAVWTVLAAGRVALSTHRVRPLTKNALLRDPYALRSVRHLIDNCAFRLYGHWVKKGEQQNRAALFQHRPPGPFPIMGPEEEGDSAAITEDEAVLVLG
Source text: as §1

[10] = molecular target: MLK1/MAP3K9 (Homo sapiens, UniProt P80192)
Source text: as §1

[11] = molecular target: TESK1 (Homo sapiens, UniProt Q15569)
TESK1, sequence (Q15569 whole entry): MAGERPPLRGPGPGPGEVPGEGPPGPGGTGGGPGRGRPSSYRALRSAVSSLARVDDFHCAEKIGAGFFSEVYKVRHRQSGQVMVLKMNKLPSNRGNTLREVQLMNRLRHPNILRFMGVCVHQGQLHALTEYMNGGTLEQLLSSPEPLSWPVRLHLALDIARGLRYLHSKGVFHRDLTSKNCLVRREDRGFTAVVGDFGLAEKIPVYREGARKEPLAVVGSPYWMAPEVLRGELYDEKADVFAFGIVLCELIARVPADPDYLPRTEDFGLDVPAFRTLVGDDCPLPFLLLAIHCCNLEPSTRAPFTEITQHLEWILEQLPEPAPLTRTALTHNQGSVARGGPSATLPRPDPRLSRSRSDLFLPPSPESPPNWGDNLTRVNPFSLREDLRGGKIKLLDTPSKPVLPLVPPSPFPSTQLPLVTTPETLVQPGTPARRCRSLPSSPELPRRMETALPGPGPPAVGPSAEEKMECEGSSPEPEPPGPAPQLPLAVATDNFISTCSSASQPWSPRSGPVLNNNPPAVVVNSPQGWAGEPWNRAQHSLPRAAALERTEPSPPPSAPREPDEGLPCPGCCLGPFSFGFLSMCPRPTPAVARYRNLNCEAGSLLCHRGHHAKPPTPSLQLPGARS
Source text: as §1

[12] = molecular target: DYRK2 (Homo sapiens, UniProt Q92630)
Source text: as §1

[13] = molecular target: GCK/MAP4K2 (Homo sapiens, UniProt Q12851)
[14] = molecular target: AMPK(A2/B2/G3) (Homo sapiens, UniProt P54646)
Source text: as §1

[15] = molecular target: Haspin (Homo sapiens, UniProt Q8TF76)
[16] = molecular target: MLK4 (Homo sapiens, UniProt Q5TCX8)
[17] = molecular target: MRCKa/CDC42BPA (Homo sapiens, UniProt Q5VT25)
MRCKa/CDC42BPA, sequence (Q5VT25 whole entry): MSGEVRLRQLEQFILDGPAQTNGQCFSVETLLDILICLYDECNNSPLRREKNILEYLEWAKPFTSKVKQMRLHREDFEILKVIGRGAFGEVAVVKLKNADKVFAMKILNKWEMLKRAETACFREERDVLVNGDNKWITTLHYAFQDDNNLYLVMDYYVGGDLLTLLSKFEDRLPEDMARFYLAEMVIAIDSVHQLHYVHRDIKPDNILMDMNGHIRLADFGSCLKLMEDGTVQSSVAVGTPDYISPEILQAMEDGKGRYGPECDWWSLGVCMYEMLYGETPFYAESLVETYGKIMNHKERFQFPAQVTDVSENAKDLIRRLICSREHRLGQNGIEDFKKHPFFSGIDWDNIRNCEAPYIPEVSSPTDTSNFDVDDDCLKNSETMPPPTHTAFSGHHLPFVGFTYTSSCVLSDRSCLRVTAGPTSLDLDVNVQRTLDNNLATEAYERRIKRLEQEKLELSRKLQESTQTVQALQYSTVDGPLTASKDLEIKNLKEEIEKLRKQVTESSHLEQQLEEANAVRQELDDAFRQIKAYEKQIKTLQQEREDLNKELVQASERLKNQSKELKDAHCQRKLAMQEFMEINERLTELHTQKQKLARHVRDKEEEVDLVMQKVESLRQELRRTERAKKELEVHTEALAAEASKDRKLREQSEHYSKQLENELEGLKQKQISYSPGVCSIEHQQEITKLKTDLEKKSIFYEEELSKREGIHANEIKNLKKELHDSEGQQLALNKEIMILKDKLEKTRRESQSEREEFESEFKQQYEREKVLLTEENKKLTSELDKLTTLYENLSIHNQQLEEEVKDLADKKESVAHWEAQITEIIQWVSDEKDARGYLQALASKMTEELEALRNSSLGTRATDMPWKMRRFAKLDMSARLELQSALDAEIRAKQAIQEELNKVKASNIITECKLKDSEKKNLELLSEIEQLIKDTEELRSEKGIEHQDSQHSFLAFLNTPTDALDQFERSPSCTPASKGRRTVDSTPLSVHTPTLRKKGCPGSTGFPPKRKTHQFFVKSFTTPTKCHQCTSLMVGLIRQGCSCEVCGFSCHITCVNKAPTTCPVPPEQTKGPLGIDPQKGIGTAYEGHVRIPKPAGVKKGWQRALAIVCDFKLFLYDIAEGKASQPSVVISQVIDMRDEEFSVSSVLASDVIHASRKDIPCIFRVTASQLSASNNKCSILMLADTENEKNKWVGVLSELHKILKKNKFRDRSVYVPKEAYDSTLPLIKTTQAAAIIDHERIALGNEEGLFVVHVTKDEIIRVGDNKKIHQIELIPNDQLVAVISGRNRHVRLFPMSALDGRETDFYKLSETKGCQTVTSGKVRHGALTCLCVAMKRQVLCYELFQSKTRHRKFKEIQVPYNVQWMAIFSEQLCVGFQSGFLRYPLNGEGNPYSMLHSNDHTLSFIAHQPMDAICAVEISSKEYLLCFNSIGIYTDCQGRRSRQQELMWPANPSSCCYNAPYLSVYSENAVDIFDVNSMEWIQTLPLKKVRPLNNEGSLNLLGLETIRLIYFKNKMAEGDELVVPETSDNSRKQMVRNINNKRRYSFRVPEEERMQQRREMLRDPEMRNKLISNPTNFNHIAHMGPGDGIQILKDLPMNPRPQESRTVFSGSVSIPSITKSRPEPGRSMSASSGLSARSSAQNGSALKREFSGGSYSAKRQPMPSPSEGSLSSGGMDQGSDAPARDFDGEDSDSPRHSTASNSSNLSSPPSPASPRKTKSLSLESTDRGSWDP
Source text: as §1

[18] = molecular target: SIK2 (Homo sapiens, UniProt Q9H0K1)
SIK2, sequence (Q9H0K1 whole entry): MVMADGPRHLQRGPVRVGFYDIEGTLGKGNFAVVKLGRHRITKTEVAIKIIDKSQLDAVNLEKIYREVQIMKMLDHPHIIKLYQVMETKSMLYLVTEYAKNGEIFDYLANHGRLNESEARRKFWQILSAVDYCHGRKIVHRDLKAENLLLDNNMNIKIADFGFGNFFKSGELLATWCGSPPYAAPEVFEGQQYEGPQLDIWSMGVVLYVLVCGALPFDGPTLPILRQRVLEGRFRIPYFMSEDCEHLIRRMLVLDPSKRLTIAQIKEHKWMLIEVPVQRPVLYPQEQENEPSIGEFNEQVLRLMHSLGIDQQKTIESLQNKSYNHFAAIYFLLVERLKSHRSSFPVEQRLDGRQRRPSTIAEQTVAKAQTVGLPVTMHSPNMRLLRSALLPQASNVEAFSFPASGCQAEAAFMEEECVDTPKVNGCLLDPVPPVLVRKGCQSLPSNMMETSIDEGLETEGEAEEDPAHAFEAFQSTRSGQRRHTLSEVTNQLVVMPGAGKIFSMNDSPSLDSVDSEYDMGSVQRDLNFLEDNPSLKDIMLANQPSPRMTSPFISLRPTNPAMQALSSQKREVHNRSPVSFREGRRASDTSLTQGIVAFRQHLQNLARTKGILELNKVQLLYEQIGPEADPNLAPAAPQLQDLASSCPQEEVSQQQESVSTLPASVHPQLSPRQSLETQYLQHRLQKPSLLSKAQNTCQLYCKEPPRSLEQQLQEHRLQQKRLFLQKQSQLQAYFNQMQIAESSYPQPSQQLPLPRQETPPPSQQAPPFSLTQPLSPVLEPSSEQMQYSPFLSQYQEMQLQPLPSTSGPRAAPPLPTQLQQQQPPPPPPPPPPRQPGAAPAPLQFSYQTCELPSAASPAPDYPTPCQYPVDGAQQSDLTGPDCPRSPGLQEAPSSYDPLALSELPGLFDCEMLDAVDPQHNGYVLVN
Source text: as §1

[19] = molecular target: RSK3 (Homo sapiens, UniProt Q15349)
Source text: as §1

[20] = molecular target: PKCzeta (Homo sapiens, UniProt Q05513)
Source text: as §1

[21] = molecular target: MEK2 (Homo sapiens, UniProt P36507)
[22] = molecular target: MARK2/PAR-1Ba (Homo sapiens, UniProt Q7KZI7)
[23] = molecular target: CDK4/cyclin D1 (Homo sapiens, UniProt P11802)
Source text: as §1

[24] = molecular target: AURORA C (Homo sapiens, UniProt Q9UQB9)
[25] = molecular target: JNK3 (Homo sapiens, UniProt P53779)
Source text: as §1

[26] = molecular target: ARAF (Homo sapiens, UniProt P10398)
[27] = molecular target: CDK3/cyclin E (Homo sapiens, UniProt Q00526)
Source text: as §1

[28] = molecular target: TNK1 (Homo sapiens, UniProt Q13470)
Source text: as §1

[29] = molecular target: PAK4 (Homo sapiens, UniProt O96013)
Source text: as §1

[30] = molecular target: TAK1 (Homo sapiens, UniProt O43318)
Source text: as §1

[31] = molecular target: ALK3/BMPR1A (Homo sapiens, UniProt P36894)
Source text: as §1

[32] = molecular target: PKG1a (Homo sapiens, UniProt Q13976)
Source text: as §1

[33] = molecular target: ACK1 (Homo sapiens, UniProt Q07912)
[34] = molecular target: ULK3 (Homo sapiens, UniProt Q6PHR2)
[35] = molecular target: BRSK1 (Homo sapiens, UniProt Q8TDC3)
Source text: as §1

[36] = molecular target: ERBB4/HER4 (Homo sapiens, UniProt Q15303)
Source text: as §1

[37] = molecular target: PDK1/PDPK1 (Homo sapiens, UniProt O15530)
[38] = molecular target: GSK3a (Homo sapiens, UniProt P49840)

c-Kit, sequence (P10721 26-976): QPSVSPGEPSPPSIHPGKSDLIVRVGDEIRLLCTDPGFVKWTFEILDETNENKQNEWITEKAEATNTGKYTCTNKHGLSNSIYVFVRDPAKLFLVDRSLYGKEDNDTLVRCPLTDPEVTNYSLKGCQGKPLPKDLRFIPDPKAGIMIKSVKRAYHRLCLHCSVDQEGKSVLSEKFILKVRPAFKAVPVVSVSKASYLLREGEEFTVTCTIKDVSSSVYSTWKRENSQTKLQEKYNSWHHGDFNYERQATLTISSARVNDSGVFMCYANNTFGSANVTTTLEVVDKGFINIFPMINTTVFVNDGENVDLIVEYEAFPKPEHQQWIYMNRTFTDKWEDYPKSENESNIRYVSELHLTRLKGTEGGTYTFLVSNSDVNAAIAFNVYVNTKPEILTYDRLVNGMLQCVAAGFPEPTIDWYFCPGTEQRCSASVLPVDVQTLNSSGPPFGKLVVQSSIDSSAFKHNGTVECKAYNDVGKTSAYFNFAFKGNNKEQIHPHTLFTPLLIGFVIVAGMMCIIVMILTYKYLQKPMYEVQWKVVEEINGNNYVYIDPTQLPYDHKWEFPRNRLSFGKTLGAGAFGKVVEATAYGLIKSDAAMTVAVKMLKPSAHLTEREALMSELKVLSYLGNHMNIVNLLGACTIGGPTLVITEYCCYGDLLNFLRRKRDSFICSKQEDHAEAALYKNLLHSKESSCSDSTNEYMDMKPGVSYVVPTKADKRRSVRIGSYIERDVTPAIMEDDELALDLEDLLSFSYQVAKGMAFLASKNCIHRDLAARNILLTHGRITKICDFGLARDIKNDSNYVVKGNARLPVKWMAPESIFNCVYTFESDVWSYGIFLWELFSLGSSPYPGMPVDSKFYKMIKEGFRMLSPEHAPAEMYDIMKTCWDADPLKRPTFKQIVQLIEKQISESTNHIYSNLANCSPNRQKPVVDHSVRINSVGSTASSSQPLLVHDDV

Compound `C#C[C@@](C)(c1ccc(Cl)cc1)c1csc(NC(=O)c2c(F)cc(N3CCNCC3)cc2F)n1` (stereo in doubt) [DF-003] has a remaining activity at 10 µM [1] of 9.74%, a remaining activity at 10 µM [2] of 20.7% and a remaining activity at 10 µM [3] of 56.8%. The remaining activity at 10 µM [4] was 61.3%, the remaining activity at 10 µM [5] was 67.6% and the remaining activity at 10 µM [6] was 68.6%. For the same compound, the remaining activity at 10 µM [7] was 71.1%, the remaining activity at 10 µM [8] was 73.7% and the remaining activity at 10 µM [9] was 74.2%. For the same compound, the remaining activity at 10 µM [10] was 79.7%, the remaining activity at 10 µM [11] was 82.9% and the remaining activity at 10 µM [12] was 83.6%. The remaining activity at 10 µM [13] was 84%, the remaining activity at 10 µM [14] was 85% and the remaining activity at 10 µM [15] was 85.7%. For the same compound, the remaining activity at 10 µM [16] was 85.8%, the remaining activity at 10 µM [17] was 85.9% and the remaining activity at 10 µM [18] was 88.5%. The remaining activity at 10 µM [19] was 88.8%, the remaining activity at 10 µM [20] was 89.4% and the remaining activity at 10 µM [21] was 89.8%. It also gave a remaining activity at 10 µM [22] of 91.2%, a remaining activity at 10 µM [23] of 91.3% and a remaining activity at 10 µM [24] of 91.7%. It also gave a remaining activity at 10 µM [25] of 92.2%, a remaining activity at 10 µM [26] of 92.8% and a remaining activity at 10 µM [27] of 94.6%. It also gave a remaining activity at 10 µM [28] of 100%, a remaining activity at 10 µM [29] of 102% and a remaining activity at 10 µM [30] of 102%. The remaining activity at 10 µM [31] was 103%, the remaining activity at 10 µM [32] was 111% and the remaining activity at 10 µM [33] was 114%. The remaining activity at 10 µM [34] was 114%, the remaining activity at 10 µM [35] was 116% and the remaining activity at 10 µM [36] was 121%. It also gave a remaining activity at 10 µM [37] of 174% and a remaining activity at 10 µM [38] of 195%.

Reference: publication PMC12420824, “Discovery of a selective alpha-kinase 1 inhibitor for the rare genetic disease ROSAH syndrome” (Nature Communications, 2025)
